The record followed here is ChEMBL document CHEMBL2216752, “Carnitine palmitoyltransferase (CPT) modulators: a medicinal chemistry perspective on 35 years of research” (J Med Chem, 2011).

Experiment [1] deals with Mus musculus. Nature of the experiment: Reduction in blood glucose in fasted db/db mouse at 50 to 100 mg/kg, po measured 2 to 4 hrs post dose. The class given is functional. Further details: scale not given: the % may be the effect or the level left.
Experiment [2] concerns Canis familiaris. Nature of the experiment: Reduction in fasting glucose in STZ-treated dog at 2.5 mg/kg/day, po for 7 days. Type of experiment: functional, Canis lupus familiaris. Further details: scale not given: the % may be the effect or the level left.
Experiment [3] has as its system Canis familiaris. Nature of the experiment: Reduction in blood glucose in STZ-treated dog at 0.7 to 2 mg/kg/day, po for 7 days measured 6 hrs post dose (reference value: 9 mM). Type of experiment: functional, Canis lupus familiaris.
Experiment [4] is described as follows: Inhibition of carnitine palmitoyltransferase in rat liver mitochondria assessed as formation of formation of palmitoyl[3H]carnitine from palmitoyl-CoA and [3H]carnitine.
Experiment [5] deals with Rattus norvegicus. In words: Reduction in KB level in alloxan-treated rat at 25 to 50 mg/kg, po measured 2 to 5 hrs post dose. Set-up: scale not given: the % may be the effect or the level left. The conditions noted are these: […]. The class given is functional.
Experiment [6] has as its system Rattus norvegicus. In words: Suppression of labeled pyruvate conversion to [14C]glucose in Sprague-Dawley rat at 10 to 20 mg/kg, po. The class given is functional. The conditions noted are these: dose mg/kg 10-20.
Experiment [7] has as its system Canis familiaris. In words: Reduction in blood glucose in alloxan -treated dog at 7.5 mg/kg, po administered as single dose measured 6 hrs post dose (reference value: 9 mM). Type of experiment: functional, Canis lupus familiaris.
The subject of experiment [8] is Mus musculus. Nature of the experiment: Reduction in blood glucose in fed db/db mouse at 50 to 100 mg/kg, po measured 2 to 4 hrs post dose. Type of experiment: functional. Set-up: scale not given: the % may be the effect or the level left.
A short description of experiment [9]: Inhibition of carnitine palmitoyltransferase hemidiaphragms isolated from fasted pretreated rat assessed as reduction of [14]CO2 production from [1-14]-palmitate or [14C]-oleate.

Molecules are shown by their SMILES. pEC50, pIC50: −log10 of the molar value.

The pIC50 is −log10 of the IC50, conventionally taken in molar units. By pEC50 is commonly meant the negative decadic logarithm of the EC50, by convention in mol/L. On to `CCCCCCCCCCCCCCC1(C(=O)OC)CO1` (racemic) [METHYL PALMOXIRATE], for which the Activity in the experiment on Mus musculus [1] was found to be 78%; in the experiment with Canis familiaris [2] it was 8%; with Canis familiaris [3], 6.5 mM; in the experiment on Rattus norvegicus [5], 70%; in the experiment on Rattus norvegicus [6] it was 50%; in the experiment on Canis familiaris [7], 6.5 mM. In the experiment with Mus musculus [8], this molecule displayed an Activity of 40%. In addition, in experiment [4], the pIC50 was 7.34. In addition, in [9], the pEC50 is 6.00.
